Experimental data from patent publication US20040214762A1, “Use of inhibitors of proline endopeptidase to modulate inositol (1,4,5) triphosphate concentration dependent on intracellular signal cascades” (priority 2001, published 2004).

How the values were obtained:
[1] = biological target: T1, purified recombinant human prolyl endopeptidase (Homo sapiens, UniProt P48147); test: Determination of IC50 with Z-Gly-Pro-AMC; type: biochemical; details: Z-Gly-Pro-AMC 10 μM, 37° C., 60 min
T1 sequence (P48147 1-710): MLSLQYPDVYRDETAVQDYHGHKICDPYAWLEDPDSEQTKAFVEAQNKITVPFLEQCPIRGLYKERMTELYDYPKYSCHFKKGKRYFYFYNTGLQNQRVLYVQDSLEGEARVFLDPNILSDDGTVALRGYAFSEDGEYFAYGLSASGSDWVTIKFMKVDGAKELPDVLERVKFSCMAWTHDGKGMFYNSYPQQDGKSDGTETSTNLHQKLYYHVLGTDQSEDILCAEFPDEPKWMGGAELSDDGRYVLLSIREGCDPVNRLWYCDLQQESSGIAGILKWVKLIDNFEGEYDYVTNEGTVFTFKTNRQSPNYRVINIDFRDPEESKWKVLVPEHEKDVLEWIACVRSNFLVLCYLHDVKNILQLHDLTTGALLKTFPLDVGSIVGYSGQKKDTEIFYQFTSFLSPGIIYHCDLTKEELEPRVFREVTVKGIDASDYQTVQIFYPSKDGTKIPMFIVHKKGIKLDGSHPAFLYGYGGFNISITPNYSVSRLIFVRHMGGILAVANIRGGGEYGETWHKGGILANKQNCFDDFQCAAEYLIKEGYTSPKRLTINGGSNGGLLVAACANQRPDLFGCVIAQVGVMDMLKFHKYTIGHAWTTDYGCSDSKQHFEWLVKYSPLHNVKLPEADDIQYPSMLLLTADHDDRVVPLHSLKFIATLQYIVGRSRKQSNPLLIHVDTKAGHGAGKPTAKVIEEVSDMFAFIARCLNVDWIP
Procedure: 100 μl inhibitor stock solution were mixed with 100 μl buffer (EPES pH7.6) and 50 μl substrate (Z-Gly-Pro-AMC, final concentration 10 μM). Reaction was started by addition of 20 μl purified recombinant human prolyl endopeptidase. Fluorescence measurement was performed at 37° C. and λexiatation=380 nm, λemission=465 nm for 60 min using a plate reader (HTS7000plus, Applied Biosystems, Weiterstadt, Germany). The final inhibitor concentrations ranged between 1 pM and 10 μM. For calculation of the IC50 value Prism 3″ (Graphpad) was used. The IC50-value of Benzyl-N-[1-(cyclopentylcarbonyl)-2-methylbutyl]carbamate was calculated as of IC50=8,91*10^−7 M

[2] = biological target: T2, PEP (Homo sapiens, UniProt P48147); test: Ki against recombinant human PEP; type: biochemical; details: data not shown
T2 sequence (P48147 1-710): T1 sequence (P48147 1-710)
Procedure: (§1) Two different approaches were chosen to influence the intracellular activity of PEP in U343 cells. Fmoc-Ala-Pyrr-CN is a potent and specific inhibitor for PEP (9), with an observed Ki value of 70 pM against recombinant human PEP (data not shown). It has been shown that this inhibitor is able to penetrate the cell membrane and inhibit PEP intracellularly (10). […] This inhibition is observed for up to 12 hours without adding fresh inhibitor. In addition, a totally different approach of reducing PEP activity was employed by generating antisense cell lines displaying reduced expression of the target enzyme.

[3] = biological target: T3, intracellular PEP activity (Homo sapiens, UniProt P48147); test: Inhibition of intracellular PEP activity in U343 cells (Z-Gly-Pro-NHMec); type: cell-based
T3 construct: endogenous in cells; host or cells: U343 human astro glioma cells (wild type)
T3 sequence (P48147 1-710): T1 sequence (P48147 1-710)
Procedure: as §1
For the determination of PEP activity, U343 wild-type and PEP antisense cells (1×10^7) were harvested by washing twice in phosphate buffered saline (GIBCO BRL) and resuspended in 200 μl assay buffer (50 mM HEPES pH 7.5; 200 mM NaCl; 1 mM EDTA; 1 mM DTT). […] The protein concentration in the supernatant was determined according to the method of Bradford (5). PEP activity was measured in assay buffer using the fluorogenic substrate Z-Gly-Pro-NHMec (10 μM) (Bachem) on a Kontron spectrofluorometer SFM 25 (excitation 380, emission 460) equipped with a four-cell changer and controlled by an IBM-compatible personal computer. The obtained data were analyzed with the software Flucol (6).

[4] = tested on: IP3 concentration in U343 cells; test: IP3 concentration in U343 cells treated with PEP inhibitor (isotope dilution method); type: cell-based, human
Procedure: To characterize the intracellular function of PEP, the IP3 concentration in the antisense cell lines Was measured. Cells were grown in 25 cm^2 culture flasks to nearly 100% confluence. IP3 concentration was determined by an isotope dilution method (Amersham Phamacia Biotech) using 0.5×10^6 cells per measurement. To inhibit intracellular PEP, the cells were washed twice with PBS and incubated for 4 hours in Optimem 1 medium (GIBCO BRL) supplemented with 5 μM PEP-inhibitor Fmoc-alanyl-pyrroline-2-nitrile (Fmoc-Ala-Pyrr-CN). All measurements were done in quadruplicate. The calculation of IP3 concentration and the statistical analysis (t-test) were performed using Prism 3.0 (Graph Pad Software).
To use an alternative approach suppressing PEP activity in U343 cells, the cells were incubated for 3 hours in presence of the specific inhibitor Fmoc-Ala-Pyrr-CN (5 μM). The influence of DMSO, necessary for dissolving the inhibitor, was excluded by adding the same amount (0.05%) of DMSO to the media of control cells. […] However, the observed changes in IP3 concentration were only 0.16 pmol/10^6 cells. This is much lower than the observed change on IP3 concentration in cell line as-11 still having 30% remaining PEP activity, and calls into question the correlation between PEP activity and IP3 concentration. […] Moreover, the lower concentration of IP3 measured after 24 hours reflects the slight recovery of PEP activity at that time point. The total amount of IP3 after 12 hours (1.69±0.1) pmol/10^6 cells; n=4) is higher than the concentration measured in cell line as-11 (0.9±0.07 pmol/10^6 cells; n=4), displaying 30% remaining enzyme activity.

[5] = tested on: IP3 concentration in U343 cells; test: IP3 concentration in U343 cells after stimulation by substance P; type: cell-based, human; details: for difference in IP3 concentration by inhibition: 5 μM inhibitor 12 hours
Procedure: To characterize the intracellular function of PEP, the IP3 concentration in the antisense cell lines Was measured. Cells were grown in 25 cm^2 culture flasks to nearly 100% confluence. IP3 concentration was determined by an isotope dilution method (Amersham Phamacia Biotech) using 0.5×10^6 cells per measurement. […] All measurements were done in quadruplicate. The calculation of IP3 concentration and the statistical analysis (t-test) were performed using Prism 3.0 (Graph Pad Software).
Wild-type and PEP antisense U343 cell lines were cultured in duplicate in 21 cm^2 culture dishes (Greiner) until confluence. Prior to stimulation the cells were washed twice in PBS and preincubated for 10 h in Optimem1 medium containing 1.6 μg/ml leupeptin (Sigma), 0.86 μg/ml chymostatin (Sigma), and 40 μg/ml bacitracin (Sigma) at 37° C. and 5% CO2. Substance P (Bachem) was added to obtain a final concentration of 1×10^−6 M and the incubation was stopped at the indicated time by rapidly aspirating the medium and adding of 0.4 ml ice cold trichloric acid. Preparation of samples and measurement of IP3 concentration were performed as described above.

[6] = biological target: T2, PEP; test: Degradation of substance P in serum free medium of U343 cells (MALDI-TOF MS); type: in vitro ADME; set-up: endogenous in cells; host or cells: U343 human astro glioma cells (wild type); details: serum free Optimem1 medium of U343 cells, 10 min; data not shown
Procedure: Using RT-PCR, the occurrence of substance P specific neurokinin receptors (NK-R) in U343 cells was investigated. PCR products could be obtained for two receptors displaying an appropriate size (FIG. 5). […] Being aware that substance P is an excellent in vitro substrate for PEP, we investigated potential degradation of substance P during the incubation time in the serum free Optimem1 medium of U343 cells by MALDI-TOF MS analysis. […] This is in agreement with the fact that no PEP activity is measurable in the medium (FIG. 6).

Molecule: CCC(C)C(NC(=O)OCc1ccccc1)C(=O)C1CCCC1 (stereo not shown) [Benzyl-N-[1-(cyclopentylcarbonyl)-2-methylbutyl]carbamate]
- IC50 [1]: 891 nM

Molecule: Fmoc-alanyl-pyrroline-2-nitrile [Fmoc-Ala-Pyrr-CN]
- Ki [2]: 0.07 nM
- duration of inhibition without adding fresh inhibitor ([3]; 5 μM): up to 12 hours
- inhibition of intracellular PEP activity ([3]; 5 μM in medium): total inhibition
- change in IP3 concentration ([4]; 5 μM, 3 hours incubation): 0.16 pmol/10^6 cells
- total amount of IP3 ([4]; 5 μM, after 12 hours total inhibition, n=4): 1.69±0.1 pmol/10^6 cells
- time to maximum IP3 concentration ([4]; single treatment 5 μM): 12 h
- difference in IP3 concentration by inhibition ([5]; U343 cells stimulated with 1 μM substance P 5 sec): 7.9 pmol/10^6 cells
- kinetic profile of IP3 stimulation by substance P, inhibitor treated vs control cells ([5]; U343 wild-type cells, 5 μM for 12 hours, 1 μM substance P): slight increased, but similar pattern
- proportional difference in IP3 concentration by inhibition ([5]; non stimulated U343 cells): 5.5 fold
- difference in IP3 concentration by inhibition ([5]; non stimulated U343 cells): 1.7 pmol/10^6 cells
- proportional difference in IP3 concentration by inhibition ([5]; substance P stimulated U343 cells): 1.7 fold

Molecule: substance P: neuropeptide (Bachem), peptide hormone used to stimulate U343 cells
- PEP specific degradation [6]: no PEP specific degradation was observed
- time of maximum IP3 concentration after stimulation ([5]; U343 wild-type untreated or inhibitor treated and as-2 cells, 1 μM substance P): 5 s
- rise of IP3 concentration by substance P stimulation ([5]; wild-type U343 cells, 1 μM substance P, 5 sec): about 14 fold
- IP3 concentration after substance P stimulation ([5]; wild-type U343 cells, 1 μM substance P, 5 sec, n=4): 5.4±0.49 pmol/10^6 cells
